# Patent publication US20250205193A1, “THERAPEUTIC COMPOUND AND SALTS” (Regents of the University of Minnesota, priority 2022, published 2025)
# Like-named read-outs stand apart in the source and are kept apart here.
# What was measured:
# 67NR cells = test: Seahorse XFe96 respiratory experiments in permeabilized cells for pyruvate driven respiration (67NR); format: cell-based; settings: read-out: inhibits pyruvate driven respiration, IC50
# Experimental: 4T1 cells were seeded (20,000 cells/well) onto Seahorse XFe96 well plates and incubated overnight in growth media at 37° C. and 5% CO2 for adherence. […] For pyruvate driven respiration experiments, test compound was injected in port A, followed by rPFO (1 nM) in port B, followed by respective substrate cocktails (FCCP stimulated) in port C, and rotenone and antimycin A (0.5 μM) in port D. Final substrate concentrations for specific tests were as follows: (5 mM pyruvate, 0.5 mM malate, 2 mM dichloroacetate (DCA); 10 mM glutamate, 2 mM DCA; 2 μM rotenone).
# in vivo = settings: mouse
# Description: (§1) The pharmacokinetics and oral bioavailability of the compound of formula (I) were investigated in mouse following single intravenous and oral gavage.
# Balb-C mice = test: Maximum tolerated dose study; format: in vivo; settings: up to 40 mg/kg PO, q.d.
# Experimental: A maximum tolerated dose study was conducted in Balb-C mice.
# [1] = for T1/2: PO 5.00 mg/kg; for F: in vivo, po, 5 mg/kg
# Description: as §1
# mice = test: Single dose acute toxicity study; format: in vivo; settings: single dose 40 mg/kg PO
# Experimental: Additionally, a single dose acute toxicity study (40 mg/kg PO, q.d.) was carried out.
smiles,measurement,setting,value
CN(Cc1ccc(C(F)(F)F)cc1)c1ccc2cc(C(=O)O)c(=O)oc2c1 [MN-D7],IC50,67NR cells,17.8 ± 4.9 nM
same,AUC(0-inf),"in vivo; female, iv, 1 mg/kg",626 ng·h/mL
same,AUC(0-t),"in vivo; female, iv, 1 mg/kg",552 ng·h/mL
same,C0,"in vivo; female, iv, 1 mg/kg",226 ng/mL
same,Cmax,"in vivo; female, iv, 1 mg/kg",200 ng/mL
same,MRT inf,"in vivo; female, iv, 1 mg/kg",4.34 h
same,MRT last,"in vivo; female, iv, 1 mg/kg",2.95 h
same,Tmax,"in vivo; female, iv, 1 mg/kg",0.08 h
same,clearance,"in vivo; female, iv, 1 mg/kg",26.6 mL/min/kg
same,half-life,"in vivo; female, iv, 1 mg/kg",3.15 h
same,Vd,"in vivo; female, iv, 1 mg/kg, Vss_obs Vss",6.92 L/kg
same,Vd,"in vivo; female, iv, 1 mg/kg, Vz_obs Vz",7.26 L/kg
same,bioavailability,"in vivo; female, po",~124%
same,half-life,"in vivo; female, po",4.41 h
same,AUC(0-inf),"in vivo; female, po, 5 mg/kg",3480 ng·h/mL
same,AUC(0-t),"in vivo; female, po, 5 mg/kg",3420 ng·h/mL
same,Cmax,"in vivo; female, po, 5 mg/kg",1450 ng/mL
same,MRT inf,"in vivo; female, po, 5 mg/kg",4.39 h
same,MRT last,"in vivo; female, po, 5 mg/kg",3.88 h
same,Tmax,"in vivo; female, po, 5 mg/kg",0.08 h
same,half-life,"in vivo; male, iv",3.65 h
same,AUC(0-inf),"in vivo; male, iv, 1 mg/kg",486 ng·h/mL
same,AUC(0-t),"in vivo; male, iv, 1 mg/kg",413 ng·h/mL
same,C0,"in vivo; male, iv, 1 mg/kg",185 ng/mL
same,Cmax,"in vivo; male, iv, 1 mg/kg",160 ng/mL
same,MRT inf,"in vivo; male, iv, 1 mg/kg",4.97 h
same,MRT last,"in vivo; male, iv, 1 mg/kg",3.17 h
same,Tmax,"in vivo; male, iv, 1 mg/kg",0.08 h
same,clearance,"in vivo; male, iv, 1 mg/kg",34.3 mL/min/kg
same,Vd,"in vivo; male, iv, 1 mg/kg, Vss_obs Vss",10.2 L/kg
same,Vd,"in vivo; male, iv, 1 mg/kg, Vz_obs Vz",10.8 L/kg
same,bioavailability,"in vivo; male, po",~125%
same,half-life,"in vivo; male, po",4.04 h
same,AUC(0-inf),"in vivo; male, po, 5 mg/kg",2610 ng·h/mL
same,AUC(0-t),"in vivo; male, po, 5 mg/kg",2580 ng·h/mL
same,Cmax,"in vivo; male, po, 5 mg/kg",890 ng/mL
same,MRT inf,"in vivo; male, po, 5 mg/kg",4.33 h
same,MRT last,"in vivo; male, po, 5 mg/kg",4.07 h
same,Tmax,"in vivo; male, po, 5 mg/kg",0.25 h
same,body weight gains and grooming patterns,Balb-C mice,normal body weight gains and grooming patterns
same,tolerability,Balb-C mice,well tolerated
same,HL_Lambda T1/2,"[1]; G1-Male, IV 1.0 mg/kg",3.65 h
same,T1/2,[1]; G2-Female,4.41 h
same,T1/2,[1]; G2-Male,4.04 h
same,F,"[1]; female, mouse",123.84%
same,F,"[1]; male, mouse",124.96%
same,mean terminal half-life,"[1]; mouse, female, IV dose",3.15 h
same,toxicity upon examination of internal organs,mice,did not cause any toxicity issues
